Source: US20220313835A1, “AMINOQUINOLINE COMPOUNDS, IMMUNOCONJUGATES, AND USES THEREOF” (BOLT BIOTHERAPEUTICS, INC., priority 2019, published 2022)

Columns and labels:
human TLR8 = biological target: T1, human TLR8 (Homo sapiens, UniProt Q9NR97); experiment: HEK Reporter Assay, HEK293 NFKB reporter cells expressing human TLR8; assay type: cell-based; details: read-out: HEK-293 hTLR8 EC50
T1 construct: host or cells: HEK293 NF-kB reporter cells
T1 sequence (Q9NR97 27-1041): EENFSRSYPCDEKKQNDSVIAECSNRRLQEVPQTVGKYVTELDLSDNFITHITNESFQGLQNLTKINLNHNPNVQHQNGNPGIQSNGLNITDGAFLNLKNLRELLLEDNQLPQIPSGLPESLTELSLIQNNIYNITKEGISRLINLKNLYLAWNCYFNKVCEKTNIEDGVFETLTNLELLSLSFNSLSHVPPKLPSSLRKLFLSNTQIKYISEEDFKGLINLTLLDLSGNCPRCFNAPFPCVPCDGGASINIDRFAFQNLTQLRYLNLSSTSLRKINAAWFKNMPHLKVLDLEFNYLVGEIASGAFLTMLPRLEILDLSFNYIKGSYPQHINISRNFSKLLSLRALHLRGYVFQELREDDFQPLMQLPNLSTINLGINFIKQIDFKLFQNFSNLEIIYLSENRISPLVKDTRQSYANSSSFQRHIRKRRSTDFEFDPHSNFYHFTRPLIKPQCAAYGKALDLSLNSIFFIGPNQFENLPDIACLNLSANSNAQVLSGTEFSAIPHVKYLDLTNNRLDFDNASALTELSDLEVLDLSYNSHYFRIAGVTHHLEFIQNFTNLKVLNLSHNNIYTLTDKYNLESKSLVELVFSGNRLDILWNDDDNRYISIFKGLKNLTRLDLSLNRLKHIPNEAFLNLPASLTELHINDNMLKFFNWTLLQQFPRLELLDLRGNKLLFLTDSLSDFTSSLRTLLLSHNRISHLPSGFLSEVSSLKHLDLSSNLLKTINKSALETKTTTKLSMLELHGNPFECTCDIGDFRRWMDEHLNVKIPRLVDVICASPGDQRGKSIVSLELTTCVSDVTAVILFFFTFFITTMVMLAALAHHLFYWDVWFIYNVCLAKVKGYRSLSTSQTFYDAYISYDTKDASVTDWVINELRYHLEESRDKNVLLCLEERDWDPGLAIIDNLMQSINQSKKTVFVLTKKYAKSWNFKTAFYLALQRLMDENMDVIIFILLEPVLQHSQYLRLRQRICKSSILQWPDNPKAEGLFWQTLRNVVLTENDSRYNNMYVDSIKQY
Description: (§1) Each compound was characterized by mass spectrometry and shown to have the mass indicated. Activity against HEK293 NFKB reporter cells expressing human TLR7 or human TLR8 was measured according to Example 31.
(§2) HEK293 reporter cells expressing human TLR7 or human TLR8 were purchased from Invivogen and vendor protocols were followed for cellular propagation and experimentation. Briefly, cells were grown to 80-85% confluence at 5% CO2 in DMEM supplemented with 10% FBS, Zeocin, and Blasticidin. Cells were then seeded in 96-well flat plates at 4×10^4 cells/well with substrate containing HEK detection medium and immunostimulatory molecules. Activity was measured using a plate reader at 620-655 nm wavelength.

human TLR7 = biological target: T2, human TLR7 (Homo sapiens, UniProt Q9NYK1); experiment: HEK Reporter Assay, HEK293 NFKB reporter cells expressing human TLR7; assay type: cell-based; details: read-out: HEK-293 hTLR7 EC50
T2 construct: host or cells: HEK293 NF-kB reporter cells
T2 sequence (Q9NYK1 27-1049): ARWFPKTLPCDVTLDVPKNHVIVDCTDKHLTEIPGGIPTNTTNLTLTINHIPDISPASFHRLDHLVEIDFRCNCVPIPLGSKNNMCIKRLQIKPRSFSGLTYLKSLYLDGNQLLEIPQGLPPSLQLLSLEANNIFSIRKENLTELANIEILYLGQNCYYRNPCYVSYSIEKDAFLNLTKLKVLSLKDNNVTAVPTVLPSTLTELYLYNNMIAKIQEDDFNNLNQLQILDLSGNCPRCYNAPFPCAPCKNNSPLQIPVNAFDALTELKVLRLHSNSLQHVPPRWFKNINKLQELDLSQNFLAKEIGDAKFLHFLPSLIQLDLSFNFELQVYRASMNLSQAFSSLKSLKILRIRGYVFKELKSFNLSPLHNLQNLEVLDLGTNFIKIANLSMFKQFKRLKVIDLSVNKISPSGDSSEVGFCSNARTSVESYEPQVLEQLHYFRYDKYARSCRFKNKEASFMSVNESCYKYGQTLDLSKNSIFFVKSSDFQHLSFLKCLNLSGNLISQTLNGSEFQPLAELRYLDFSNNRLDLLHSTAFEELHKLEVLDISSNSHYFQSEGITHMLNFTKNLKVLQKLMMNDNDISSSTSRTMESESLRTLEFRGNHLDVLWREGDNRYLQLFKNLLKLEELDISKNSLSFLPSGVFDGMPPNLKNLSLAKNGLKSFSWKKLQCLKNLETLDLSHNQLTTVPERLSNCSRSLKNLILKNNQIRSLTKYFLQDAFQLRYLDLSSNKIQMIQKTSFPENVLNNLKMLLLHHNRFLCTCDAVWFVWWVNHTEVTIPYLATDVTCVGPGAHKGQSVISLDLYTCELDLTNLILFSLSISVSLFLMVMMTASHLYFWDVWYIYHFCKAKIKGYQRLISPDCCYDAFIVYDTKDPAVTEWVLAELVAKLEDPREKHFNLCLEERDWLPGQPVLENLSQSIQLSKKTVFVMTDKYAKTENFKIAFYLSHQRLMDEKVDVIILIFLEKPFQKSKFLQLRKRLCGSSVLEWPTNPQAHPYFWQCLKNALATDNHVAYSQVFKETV
Description: as §1, §2

Row | EC50 (human TLR8) | EC50 (human TLR7) | Structure (SMILES)
1 | 1.48 µM | > 9 µM | CCCCCc1cc2ccc(-c3cccc(S(=O)(=O)N4CC(CN)C4)c3)cc2nc1N [AQ-12, 7-[3-[3-(aminomethyl)azetidin-1-yl]sulfonylphenyl]-3-pentyl-quinolin-2-amine]
2 | 2.45 µM | > 9 µM | CCCCCc1cc2c(CC3CCCN3C)cc(-c3cccc(S(=O)(=O)N4CC(CO)C4)c3)cc2nc1N (stereo not shown) [AQ-15, [1-[3-[2-amino-5-[(1-methylpyrrolidin-2-yl)methyl]-3-pentyl-7-quinolyl]phenyl]sulfonylazetidin-3-yl]methanol]
3 | > 9 µM | > 9 µM | CCCCCc1cc2ccc(-c3cccc(S(=O)(=O)N4CC(CN/C(=N\CCOC)Nc5cccc(C#N)c5)C4)c3)cc2nc1N [AQ-17, 1-((1-((3-(2-amino-3-pentylquinolin-7-yl)phenyl)sulfonyl)azetidin-3-yl)methyl)-3-(3-cyanophenyl)-2-(2-methoxyethyl)guanidine]
4 | > 9 µM | > 9 µM | CCCCCc1cc2ccc(C(=O)Nc3ccc(N4CCC(C(=O)NCCNC(=O)OC(C)(C)C)CC4)nc3)cc2nc1N [AQ-10, tert-butyl N-[2-[[1-[5-[(2-amino-3-pentyl-quinoline-7-carbonyl)amino]-2-pyridyl]piperidine-4-carbonyl]amino]ethyl]carbamate]
5 | 1.02 µM | > 9 µM | CCCCCc1cc2c(CCCCCN(C)C)cccc2nc1N [AQ-8, 5-(5-(dimethylamino)pentyl)-3-pentylquinolin-2-amine]
6 | > 9 µM | > 9 µM | CCCN(CCC)C(=O)c1cc2ccccc2nc1N [AQ-6, 2-amino-N,N-dipropylquinoline-3-carboxamide]
7 | > 9 µM | > 9 µM | CCCCCc1cc2c(CCCCCNC=O)cccc2nc1N [AQ-4, N-(5-(2-amino-3-pentylquinolin-5-yl)pentyl)formamide]
8 | > 9 µM | > 9 µM | CCCCCc1cc2c(CCCCCNC(=O)Nc3cccc(C#N)c3)cccc2nc1N [AQ-2, 1-(5-(2-amino-3-pentylquinolin-5-yl)pentyl)-3-(3-cyanophenyl)urea]
9 | > 9 µM | > 9 µM | CCCCCc1cc2c(CCCCCN)cc(-c3cccc(S(=O)(=O)N4CC(CO)C4)c3)cc2nc1N [AQ-13, [1-[3-[2-amino-5-(5-aminopentyl)-3-pentyl-7-quinolyl]phenyl]sulfonylazetidin-3-yl]methanol]
10 | 0.562 µM | > 9 µM | CCCCCc1cc2ccc(-c3cccc(S(=O)(=O)N4CC(CO)C4)c3)cc2nc1N [AQ-5, (1-((3-(2-amino-3-pentylquinolin-7-yl)phenyl)sulfonyl)azetidin-3-yl)methanol]
11 | > 9 µM | > 9 µM | CCCCCc1cc2ccc(C(=O)Nc3ccc(N4CCC(C(=O)NCCN)CC4)nc3)cc2nc1N [AQ-14, 2-amino-N-(6-(4-((2-aminoethyl)carbamoyl)piperidin-1-yl)pyridin-3-yl)-3-pentylquinoline-7-carboxamide]
12 | > 9 µM | > 9 µM | CCCN(CCC)C(=O)c1cc2c(CCCCCN)cccc2nc1N [AQ-7, 2-amino-5-(5-aminopentyl)-N,N-dipropylquinoline-3-carboxamide]
13 | > 9 µM | 0.252 µM | CCCCCc1cc2c(CCCCCNC(C)=O)cccc2nc1N [AQ-1, N-(5-(2-amino-3-pentylquinolin-5-yl)pentyl)acetamide]
14 | > 9 µM | > 9 µM | CCCCCc1cc2ccc(-c3cccc(S(=O)(=O)N4CC(CNC(=O)OC(C)(C)C)C4)c3)cc2nc1N [AQ-11, tert-butylN-[[1-[3-(2-amino-3-pentyl-7-quinolyl)phenyl]sulfonylazetidin-3-yl]methyl] carbamate]
15 | > 9 µM | > 9 µM | CCCCCc1cc2c(C#CCCCNC(=O)OC(C)(C)C)cc(-c3cccc(S(=O)(=O)N4CC(CO)C4)c3)cc2nc1N [AQ-16, tert-butyl N-[5-[2-amino-7-[3-[3-(hydroxymethyl)azetidin-1-yl]sulfonylphenyl]-3-pentyl-5-quinolyl]pent-4-ynyl]carbamate]
16 | > 9 µM | > 9 µM | CCCCCc1cc2c(CCCCCNC(=O)OC(C)(C)C)cccc2nc1N [AQ-3, tert-butyl (5-(2-amino-3-pentylquinolin-5-yl)pentyl)carbamate]
17 | > 9 µM | > 9 µM | CCCCCc1cc2c(CCCCCN/C(=N\c3cccc(C#N)c3)NCCOC)cccc2nc1N [AQ-18, 1-(5-(2-amino-3-pentylquinolin-5-yl)pentyl)-3-(3-cyanophenyl)-2-(2-methoxyethyl)guanidine]
